The target in one assay is Dipeptidyl peptidase 4 (Homo sapiens, UniProt P27487). The assay is described as follows: Inhibition of DPP4.
For a further assay, the system named is Rattus norvegicus. Put plainly: Antihyperglycemic activity in Zucker fa/fa rat by oral glucose tolerance test at 3 umol/kg, po. It is filed as functional, organism-based.

From ChEMBL document CHEMBL1139028, “Seco-prolinenitrile inhibitors of dipeptidyl peptidase IV define minimal pharmacophore requirements at P1” (Bioorg Med Chem Lett, 2006) come the findings set out here.

Active and inactive are the calls of the source. The calls are words filed in the database; no cut-off is given here.

Sequence of Dipeptidyl peptidase 4 (P27487 whole entry): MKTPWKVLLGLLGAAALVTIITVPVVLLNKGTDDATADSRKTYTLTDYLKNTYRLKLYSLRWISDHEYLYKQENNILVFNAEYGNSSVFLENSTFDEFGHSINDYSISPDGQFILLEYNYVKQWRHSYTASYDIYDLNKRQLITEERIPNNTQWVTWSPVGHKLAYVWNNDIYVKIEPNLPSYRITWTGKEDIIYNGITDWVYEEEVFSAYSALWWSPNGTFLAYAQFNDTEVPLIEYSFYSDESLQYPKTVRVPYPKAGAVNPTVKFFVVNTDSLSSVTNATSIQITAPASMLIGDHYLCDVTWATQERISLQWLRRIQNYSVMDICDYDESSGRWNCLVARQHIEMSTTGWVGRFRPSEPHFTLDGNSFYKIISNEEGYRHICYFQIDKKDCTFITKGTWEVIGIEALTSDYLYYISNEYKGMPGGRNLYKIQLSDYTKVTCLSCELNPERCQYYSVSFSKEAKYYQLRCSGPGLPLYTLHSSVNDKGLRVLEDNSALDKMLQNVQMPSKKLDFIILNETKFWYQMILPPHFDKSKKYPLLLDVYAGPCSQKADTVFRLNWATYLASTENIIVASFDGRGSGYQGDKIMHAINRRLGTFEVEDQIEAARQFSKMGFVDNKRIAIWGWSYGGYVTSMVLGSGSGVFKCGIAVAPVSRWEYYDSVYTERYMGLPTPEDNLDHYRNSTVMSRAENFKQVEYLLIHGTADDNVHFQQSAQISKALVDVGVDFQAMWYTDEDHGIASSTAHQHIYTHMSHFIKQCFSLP

Usually Ki stands for a measure of affinity in units of concentration, obtained from inhibition or displacement. Low values mean tighter binding, high ones weaker binding. The compound `CC(C)(C#N)NC(=O)[C@@H](N)C12CC3CC(CC(C3)C1)C2` came in with a Ki on Dipeptidyl peptidase 4 above 10 µM.

As for `N#CCNC(=O)[C@@H](N)C12CC3CC(CC(C3)C1)C2`, the inhibitory constant (Ki) on Dipeptidyl peptidase 4 was above 10 µM.

On to `CN(CC#N)C(=O)[C@@H](N)C12CC3CC(CC(O)(C3)C1)C2`, for which, in the assay on Rattus norvegicus, the result was Active.

`N#CCN(Cc1ccccc1)C(=O)[C@@H](N)C12CC3CC(CC(C3)C1)C2`: the Ki on Dipeptidyl peptidase 4 was above 10 µM.

`CCCCN(CC#N)C(=O)[C@@H](N)C(C)(C)C` came in with an inhibition constant Ki on Dipeptidyl peptidase 4 above 10 µM.

In turn, `CC(C)(C#N)NC(=O)[C@@H](N)C(C)(C)C` registered an inhibition constant (Ki) at Dipeptidyl peptidase 4 above 10 µM.
